Measurements reported in PubChem BioAssay (NCI).
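Step 1: Grow cells in 96-well plates. Step 2: Expose to compound for 48 hours at 5 concentrations. Step 3: Interpolate endpoints linearly; if unreached, use highest concentration. TGI: total growth inhibition.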

Legend:
Test in all cases: growth of human tumour cells (NCI), 48 h
[1] = system: CCRF-CEM leukemia
[2] = system: MOLT-4 leukemia
[3] = system: OVCAR-8 ovarian
[4] = system: UO-31 renal
[5] = system: CAKI-1 renal
[6] = system: T-47D breast
[7] = system: SK-OV-3 ovarian
[8] = system: A549 NSCLC
[9] = system: UACC-62 melanoma
[10] = system: UACC-257 melanoma

Row | SMILES | TGI [1] [µM] | TGI [2] [µM] | TGI [3] [µM] | TGI [4] [µM] | TGI [5] [µM] | TGI [6] [µM] | TGI [7] [µM] | TGI [8] [µM] | TGI [9] [µM] | TGI [10] [µM]
1 | Cc1c(NC(=S)NN)c(=O)n(-c2ccccc2)n1C | > 100 | > 100 | > 100 | > 100 | > 100 | > 100 | > 100 | > 100 | > 100 | > 100
2 | C/C=C/[C@H]1O[C@@](O)([C@@H](C)[C@H](O)[C@H](C)[C@H]2OC(=O)/C(OC)=C/C(C)=C/[C@@H](C)[C@@H](O)[C@@H](CC)[C@@H](O)[C@H](C)C/C(C)=C/C=C/[C@@H]2OC)C[C@H](OC2CC(O)C(O)C(C)O2)[C@@H]1C (stereo not given in full) | < 0.0075 | < 0.0075 | 12 | 0.29 | 11.9 | 0.336 | 16.9 | 12.3 | 10.3 | < 0.0075
3 | CCCCCCCC1C(C)c2c([nH]c3ccccc23)C2C(=O)N(c3ccc(OC)cc3)C(=O)C21 (stereo not given) | > 6.6 | > 10 | 6.02 | 6.86 | > 8.37 | > 10 | > 10 | 5.33 | > 10 | 7.65
4 | NC(Cc1ccc(S(=O)(=O)O)cc1)C(=O)NC(CCCCNC(=O)NCCCCC(NC(=O)C(N)Cc1ccc(S(=O)(=O)O)cc1)C(=O)NC(Cc1ccc(S(=O)(=O)O)cc1)C(=O)O)C(=O)NC(Cc1ccc(S(=O)(=O)O)cc1)C(=O)O (stereo not given) | > 100 | > 100 | > 100 | > 100 | > 100 | > 100 | > 100 | > 100 | > 100 | > 100
5 | CC(=O)OC1=c2ccccc2=C(O)C2C1C=NN2C(C)=O (stereo not given) | > 100 | > 100 | > 100 | > 100 | > 100 | > 100 | > 100 | > 100 | > 100 | > 100
6 | Cc1cc(N(CCC#N)CCC#N)ccc1/C(N=Nc1ccc(Cl)cc1)=N\NC(=O)c1cc(Cl)ccc1O | > 100 | > 100 | > 100 | > 100 | > 100 | > 100 | 97.9 | > 100 | > 100 | > 100
7 | O=P1(C(O)/C=C/c2ccccc2)N(Cc2ccccc2)[C@H](c2ccccc2)[C@@H](c2ccccc2)N1Cc1ccccc1 (stereo not given in full) | > 92.6 | > 100 | > 55.1 | 98.3 | 99.7 | > 100 | > 81.8 | > 100 | > 100 | 57.6
8 | C=CCN1CCC(OC(=O)C(O)(C#CC)C2CCCC2)CC1 (stereo not given) | > 100 | > 100 | > 100 | > 100 | > 100 | > 100 | > 100 | > 100 | > 100 | > 100
9 | CC1(C)CC(=O)C(CCC(=O)/C=C/c2ccccc2)C(=O)C1 | > 100 | > 100 | > 100 | > 100 | > 100 | > 100 | > 100 | > 100 | > 100 | > 100
10 | CCC1=NC(N/N=C/c2ccco2)=N/C1=C\c1ccccc1O | 70.4 | > 100 | > 100 | > 100 | > 100 | > 100 | > 100 | > 100 | 53.6 | > 100
11 | C=CCn1c(=O)c2ccccc2[n+]2c(C)c(C(=O)OCC)sc12 | > 100 | > 100 | > 100 | > 100 | > 100 | > 100 | > 100 | > 100 | > 100 | > 100
12 | CCOC(=O)CN1C(=O)c2c(c(C)n(-c3ccccc3)c2C)C1=O | > 100 | > 100 | > 100 | > 100 | > 100 | > 100 | > 100 | > 100 | > 100 | > 100
13 | Cc1ccc(C2=Nc3cc(C)c(Cl)cc3S(=O)(=O)NN2)cc1 | > 100 | > 100 | > 100 | > 100 | 75.7 | > 100 | > 100 | > 100 | > 100 | > 100
14 | CO/N=C(\C)c1ccc(Nc2c3ccccc3nc3occc23)cc1 | 35.9 | 33.5 | 14.8 | 25.1 | 7.15 | 19.2 | 17.2 | 20 | 16.3 | 44.1
15 | O=C(CN1CCN(Cc2ccccc2)CC1)c1ccc2[nH]c(=O)oc2c1 | > 100 | > 100 | > 100 | > 100 | > 100 | > 100 | > 100 | > 100 | > 100 | > 100
16 | CN(C)c1ccc(/C=c2/c3ccccc3n3c2c2ccccc2[n+]3C)cc1 | 1.23 | 2.67 | 2.34 | 3.9 | 8.53 | 1.51 | 14 | 19.7 | 0.998 | 1.51
17 | CCOC(=O)c1cnn2c1ncc1c(=O)n(NC(N)=O)ccc12 | > 100 | > 100 | > 100 | > 100 | > 100 | > 100 | > 100 | > 100 | > 100 | > 100
18 | N#Cc1c(N2CCCC2)nsc1NCc1ccccc1 | > 100 | > 100 | > 100 | 65 | > 100 | > 100 | > 100 | > 100 | > 100 | > 100
19 | CC(=O)[C@@H]1[C@@H](OC(=O)CCC(C)COC2OC(CO)C(O)C(O)C2O)C[C@H]2[C@@H]3CC=C4C[C@@H](OC5OC(CO)C(OC6OC(C)C(O)C(O)C6O)C(O)C5OC5OC(C)C(O)C(O)C5O)CC[C@]4(C)[C@H]3CC[C@]12C (stereo not given in full) | > 100 | > 100 | > 100 | > 100 | > 100 | > 100 | > 100 | > 100 | > 100 | > 100
20 | Cc1c(C#N)c2nnn(-c3ccc(Cl)cc3)c(=O)n2c1-c1ccccc1 | > 100 | 42.3 | 11.2 | > 51.3 | > 52.3 | 45.2 | 30 | > 40.3 | 18.5 | 33.6
21 | ClCCCN(CCCCl)c1ccc(C=Nc2cccc(Cl)c2)cc1 | 65.2 | > 67.4 | 56.5 | 88.3 | 11.8 | 44.8 | > 100 | > 79.7 | 15.4 | > 77
